{"source": "paper PMC7913927", "about": "“Leishmanicidal Activity of Betulin Derivatives in Leishmania amazonensis; Effect on Plasma and Mitochondrial Membrane Potential, and Macrophage Nitric Oxide and Superoxide Production” (Microorganisms, 2021)", "system": "L. (L.) amazonensis LTB0016, VE98MR and VE2000MM promastigotes", "assay": "Mitochondrial membrane potential (ΔΨm), JC-1 fluorescence", "assay_type": "cell-based, Leishmania amazonensis", "details": "promastigotes of LTB0016, VE98MR, 48 h, 18: 1 and 2 µM, 22: 2 and 4 µM, vs untreated", "description": "To evaluate the mitochondrial membrane potential (ΔΨm), the fluorescent compound JC-1 (5,5′,6,6′-tetrachloro-1,1′,3,3′-tetraethylbenzimidazolocarbocyanine iodide) was used, according to a modification of a previously described method. Exponential phase promastigotes were suspended at 26 °C, in RPMIc without phenol red, in a volume of 1 mL, at a cell density of 1 × 10^7 parasites mL^−1. The parasites were left to grow for 48 h, in the presence and absence of the test compounds. Then, after centrifuging (500× g for 10 min) and washing the parasites twice with PBS, they were resuspended in 200 µL of HEPES-G, and placed in 96-well plates. […] Finally, fluorescence was measured in a Victor^2 Wallac spectrofluorometer (Perkin Elmer, Turku, Finland) at the appropriate wavelengths (ex: 485 nm/em: 535 and 580 nm). As the mitochondrial membrane is polarized, JC-1 produces intra-mitochondrial aggregates “J-aggregates” that emit a red fluorescence (λ 590 nm). Mitochondrial membrane depolarization induces JC-1 monomeric conformation in the cytoplasm, then the fluorescence turns green (λ 530 nm). The red/green ratio of fluorescence then is an indirect measurement of the mitochondrial membrane potential. A more depolarized mitochondria means a lower ratio of red/green fluorescence.\nRelative fluorescence (RF) was calculated, where RF = 580 nm fluorescence/535 nm fluorescence (red/green). […]", "note": "Entries after “also recorded” stand apart in the source; their conditions may differ."}
{"smiles": "C=C(C)C1CCC2(C=NO)CCC3(C)C(CCC4C5(C)CCC(=NO)C(C)(C)C5CCC43C)C12", "note": "(stereo not shown) [Compound 18]", "values": [{"measurement": "Effect on mitochondrial membrane potential (ΔΨm)", "result": "significantly depolarized; also recorded: depolarizes ΔΨm in a concentration-dependent way"}]}
